Measurements taken from US6316207A, “Mouse cardiac muscle cell line, HL-1” (priority 1999, dated 2001).
Counter-ions that a name gives are not always drawn. Like-named read-outs stand apart in the source and are kept apart here.

What was measured:
guinea pig myocytes = conditions: read-out: Kd for [^3 H]dofetilide binding in guinea pig myocytes, mean+/-SD, n=3, Chadwick et al; cited from earlier work
[1] = test system: IKr in guinea pig myocytes; conditions: cited from earlier work
[2] = target: T1, [^3 H]dofetilide binding site in HL-1 cells (IKr) (Mus musculus, UniProt O35219); test: biochemical
T1 sequence (O35219 1-1162): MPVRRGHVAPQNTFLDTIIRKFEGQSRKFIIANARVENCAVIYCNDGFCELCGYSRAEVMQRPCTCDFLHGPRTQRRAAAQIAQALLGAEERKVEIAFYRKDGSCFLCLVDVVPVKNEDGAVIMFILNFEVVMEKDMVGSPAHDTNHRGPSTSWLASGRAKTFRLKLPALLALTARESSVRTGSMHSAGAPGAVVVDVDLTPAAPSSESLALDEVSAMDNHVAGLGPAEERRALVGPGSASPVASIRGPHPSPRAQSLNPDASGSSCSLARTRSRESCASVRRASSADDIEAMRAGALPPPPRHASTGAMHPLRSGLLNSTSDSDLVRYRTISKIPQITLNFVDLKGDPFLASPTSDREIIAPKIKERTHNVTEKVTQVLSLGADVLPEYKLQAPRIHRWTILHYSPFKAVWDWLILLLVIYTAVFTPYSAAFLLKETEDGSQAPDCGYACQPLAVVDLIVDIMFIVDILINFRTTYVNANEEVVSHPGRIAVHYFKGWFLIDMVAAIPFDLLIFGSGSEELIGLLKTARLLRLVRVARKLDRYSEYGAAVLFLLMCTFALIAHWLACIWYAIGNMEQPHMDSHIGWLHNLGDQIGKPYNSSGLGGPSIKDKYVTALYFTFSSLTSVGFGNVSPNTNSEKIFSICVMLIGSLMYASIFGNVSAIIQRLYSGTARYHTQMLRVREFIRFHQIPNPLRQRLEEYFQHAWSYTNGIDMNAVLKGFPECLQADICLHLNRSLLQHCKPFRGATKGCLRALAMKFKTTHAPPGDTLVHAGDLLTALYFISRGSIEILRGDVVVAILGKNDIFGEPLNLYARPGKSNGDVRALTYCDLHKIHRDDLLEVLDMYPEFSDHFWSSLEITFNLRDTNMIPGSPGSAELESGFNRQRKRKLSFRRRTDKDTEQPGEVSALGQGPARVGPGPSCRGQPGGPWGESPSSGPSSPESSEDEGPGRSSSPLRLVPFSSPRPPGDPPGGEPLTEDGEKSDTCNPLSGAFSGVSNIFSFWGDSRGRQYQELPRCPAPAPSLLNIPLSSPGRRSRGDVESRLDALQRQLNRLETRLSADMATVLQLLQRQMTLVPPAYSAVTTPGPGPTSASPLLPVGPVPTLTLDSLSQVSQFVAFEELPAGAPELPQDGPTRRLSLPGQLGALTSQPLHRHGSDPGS
Experimental: HL-1 cells from passages 60 to 80 are dissociated from tissue culture flasks with a 5 min incubation with 0.1% trypsin (Clonetics, San Diego) followed by inactivation in a trypsin neutralizing solution (Clonetics, San Diego). The cells are suspended in a buffer containing (mM) KCl 40, KH2 PO4 20, MgCl2 5, KHCO3 0.5, glucose 10, potassium glutamate5 0, potassium asparate 20, EGTA 1 and HEPES (N-[2-Hydroxyethyl]piperazine-N'-[2-ethanesulfonic acid]) 10, adjusted to pH 7.4 with KOH and containing 0.1% bovine serum albumin (BSA). […] The cells are then filtered on GF/C Unifilter® 96 well filter plates (Packard, Meriden, Conn.) using a Packard Micromate496® harvester. Filter plates are presoaked with wash buffer (25 mM Tris-HCl, 130 mM NaCl, 5.5 mM KCl, 0.8 mM MgCl2 and 50 μM CaCl2 [pH 7.4]) containing 1.0% BSA and washed following harvesting at room temperature with four ×1 ml washes of the same buffer without BSA.

[3] = test system: [^3 H]dofetilide binding site in guinea pig myocytes; conditions: cited from earlier work
[4] = test system: IKr in rabbit ventricular myocytes; conditions: Carmeliet 1992, read-out: IC50 reported for IKr in rabbit ventricular myocytes; cited from earlier work
HL-1 cells = test: Contractile activity (spontaneous beating) of HL-1 cells; assay type: cell-based, mouse
Experimental: CONTRACTILE ACTIVITY OF HL-1 CELLS
HL-1 cells are found to respond to several pharmacological agents in a manner expected for cardiomyocytes. Confluent cultures of HL-1 cells at passage 33 in growth medium (without norepinephrine or retinoic acid) display spontaneous contractile activity (beating).
In other experiments, spontaneously beating confluent HL-1 cells in growth medium are stopped by adding propranolol. First, norepinephrine bitartrate is added to a final concentration of 10^-5 M. Under these stimulated conditions, propranolol is subsequently added.
To determine if the effect of 10^-4 M propranolol is reversible, the culture medium containing propranolol is removed and growth medium (without norepinephrine or retinoic acid) is added to the cell cultures.

[3H]c1cc(OCCN(C)CCc2ccc(NS(C)(=O)=O)cc2)ccc1NS(C)(=O)=O [[^3 H]dofetilide]
Kd (guinea pig myocytes): 70 ± 6 nM

CN1CCN(CCCCN2C(=O)CN(/N=C/c3ccc(-c4ccc(Cl)cc4)o3)C2=O)CC1 [azimilide dihydrochloride]
IC50 ([1]; Fermini et al 1995, read-out: IC50 for blocking the rapidly activating component of the delayed rectifier IKr): 400 nM | Kd [2]: 800 nM

CCCCCCC[N+](CC)(CC)CCCCc1ccc(Cl)cc1 [clofilium]
Kd ([3]; cardiac myocytes): 1290 nM

CN(CCOc1ccc(NS(C)(=O)=O)cc1)CCc1ccc(NS(C)(=O)=O)cc1 [dofetilide]
Kd ([3]; read-out: Kd, competition for [^3 H]dofetilide binding, Cardiac Myocytes, primary guinea pig myocytes, Chadwick et al, SEM and N in own columns): 100 nM | IC50 ([1]; Jurkiewicz and Sanguinetti 1993, read-out: IC50 reported for IKr in guinea pig myocytes): 31 nM | IC50 [4]: 4 nM

NC[C@H](O)c1ccc(O)c(O)c1 [norepinephrine bitartrate]
contractile activity (beating) of HL-1 cells (HL-1 cells; final concentration 10^-5 M, passage 33, within two minutes, growth medium without norepinephrine or retinoic acid): beating faster

CC(C)NCC(O)COc1cccc2ccccc12 (centres unmarked) [propranolol]
time to arrest of all contractions (HL-1 cells; final concentration 10^-4 M, after 10^-5 M norepinephrine bitartrate): ≤ 10 min | arrest of contractions (HL-1 cells; final concentration 10^-4 M, after stimulation with 10^-5 M norepinephrine bitartrate, within 10 minutes): arrests all contractions | effect on contractile activity (HL-1 cells; final concentrations of 10^-7 M, 10^-6 M, and 10^-5 M, after 10^-5 M norepinephrine bitartrate): no observable effect | time to recovery of contractile activity after removal of drug (HL-1 cells; previously exposed to 10^-4 M (printed 10^31 4 M)): ≤ 1 h | reversibility: contractile activity after removal of drug (HL-1 cells; previously exposed to 10^-4 M (printed 10^31 4 M), within 1 hour after medium change): contractile activity similiar to control HL-1 cell not exposed to propranolol

COc1ccc(CCN(C)CCCC(C#N)(c2ccc(OC)c(OC)c2)C(C)C)cc1OC (centres unmarked) [verapamil hydrochloride]
contractile activity after addition of drug (HL-1 cells; final concentrations of 10^-7 M, 10^-6 M and 10^-5 M, growth medium without norepinephrine or retinoic acid): no observable contractile activity
